Results taken from patent US10202361B2, “Pyridazinones as herbicides” (E I DU PONT DE NEMOURS AND COMPANY, priority 2014, dated 2019).
Like-named read-outs stand apart in the source and are kept apart here.

How the values were obtained:
Format in all cases: in vivo
[1] = test system: barnyardgrass (Echinochloa crus-galli); experiment: Test A pre-/postemergence greenhouse herbicide test; details: Echinochloa crus-galli, 240 h, 0 to 100 scale (0 no effect, 100 complete control), approx. 10 d, read-out: Plant response rating, Barnyardgrass; for pest or weed control at 125 g/ha: 125 g ai/ha; for pest or weed control at 500 g/ha: 500 g ai/ha
Outline: (§1)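 Pre + post applications, simultaneous; formulation = non-phytotoxic solvent mix incl. surfactant. Post: 1–2 leaf stage, 2–10 cm. Soil: loam/sand. Greenhouse ~10 d, visual rating 0 (no effect) to 100 (complete control) vs untreated.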

[2] = test system: corn (Zea mays); experiment: as above; details: Zea mays, 240 h, 0 to 100 scale (0 no effect, 100 complete control), approx. 10 d; for Corn plant response rating (crop injury, 0 = no effect, 100 = complete kill) at 125 g/ha: 125 g ai/ha; for Corn plant response rating (crop injury, 0 = no effect, 100 = complete kill) at 500 g/ha: 500 g ai/ha
Outline: as §1

[3] = test system: pigweed (Amaranthus retroflexus); experiment: as above; details: Amaranthus retroflexus, 240 h, 0 to 100 scale (0 no effect, 100 complete control), approx. 10 d, read-out: Plant response rating, Pigweed; for pest or weed control at 125 g/ha: 125 g ai/ha; for pest or weed control at 500 g/ha: 500 g ai/ha
Outline: as §1

[4] = test system: blackgrass (Alopecurus myosuroides); experiment: Test C pre-/postemergence greenhouse herbicide test; details: Alopecurus myosuroides, Blackgrass, read-out: Plant response rating; for pest or weed control at 62 g/ha: 62 g ai/ha; for pest or weed control at 125 g/ha: 125 g ai/ha; for pest or weed control at 250 g/ha: 250 g ai/ha
Outline: (§2)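 Visual ratings, 0 = no effect, 100 = complete control, vs untreated controls at 13–15 d. Pre: seeds in loam/sand. Post: 2–18 cm plants (1–4 leaf), peat/vermiculite mix. Surfactant-containing solvent formulation; greenhouse.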

[5] = test system: johnsongrass (Sorghum halepense); experiment: as above; details: Sorghum halepense, Johnsongrass, read-out: Plant response rating; for pest or weed control at 31 g/ha: 31 g ai/ha; for pest or weed control at 62 g/ha: 62 g ai/ha; for pest or weed control at 125 g/ha: 125 g ai/ha; for pest or weed control at 250 g/ha: 250 g ai/ha
Outline: as §2

[6] = test system: morningglory (Ipomoea coccinea); experiment: as above; details: Morningglory
Outline: as §2

[7] = test system: oat, wild (wild oat, Avena fatua); experiment: as above
Outline: as §2

[8] = test system: pigweed (Amaranthus retroflexus); experiment: as above; details: Amaranthus retroflexus, Pigweed, read-out: Plant response rating; for pest or weed control at 31 g/ha: 31 g ai/ha; for pest or weed control at 62 g/ha: 62 g ai/ha; for pest or weed control at 125 g/ha: 125 g ai/ha; for pest or weed control at 250 g/ha: 250 g ai/ha
Outline: as §2

[9] = test system: ragweed (common ragweed, Ambrosia elatior); experiment: as above; details: Ambrosia artemisiifolia, Ragweed, read-out: Plant response rating; for pest or weed control at 31 g/ha: 31 g ai/ha; for pest or weed control at 62 g/ha: 62 g ai/ha; for pest or weed control at 125 g/ha: 125 g ai/ha; for pest or weed control at 250 g/ha: 250 g ai/ha
Outline: as §2

[10] = test system: wheat (winter wheat, Triticum aestivum); experiment: as above; details: Triticum aestivum, Wheat, read-out: Plant response rating; for plant injury at 62 g/ha: 62 g ai/ha; for plant injury at 125 g/ha: 125 g ai/ha; for plant injury at 250 g/ha: 250 g ai/ha
Outline: as §2

[11] = post-emergence, Postemergence, 31 g ai/ha

Cc1cc(=O)n(-c2ccc(F)cc2)nc1Oc1ccnc(C(F)(F)F)c1 [Compound 14, 2-(4-fluorophenyl)-5-methyl-6-[[2-(trifluoromethyl)-4-pyridinyl]oxy]-3 (2H)-pyridazinone]
pest or weed control at 125 g/ha ([1]; post-emergence, Postemergence): 80%
pest or weed control at 500 g/ha ([1]; post-emergence, Postemergence): 90%
pest or weed control at 125 g/ha ([1]; pre-emergence, Preemergence): 70%
pest or weed control at 500 g/ha ([1]; pre-emergence, Preemergence): 100%
Corn plant response rating (crop injury, 0 = no effect, 100 = complete kill) at 125 g/ha ([2]; post-emergence, Postemergence): 50%
Corn plant response rating (crop injury, 0 = no effect, 100 = complete kill) at 500 g/ha ([2]; post-emergence, Postemergence): 70%
Corn plant response rating (crop injury, 0 = no effect, 100 = complete kill) at 125 g/ha ([2]; pre-emergence, Preemergence): 0%
Corn plant response rating (crop injury, 0 = no effect, 100 = complete kill) at 500 g/ha ([2]; pre-emergence, Preemergence): 50%
pest or weed control at 125 g/ha ([3]; post-emergence, Postemergence): 100%
pest or weed control at 500 g/ha ([3]; post-emergence, Postemergence): 100%
pest or weed control at 125 g/ha ([3]; pre-emergence, Preemergence): 100%
pest or weed control at 500 g/ha ([3]; pre-emergence, Preemergence): 100%
pest or weed control at 31 g/ha [4, 11]: 5%
pest or weed control at 62 g/ha ([4]; post-emergence, Postemergence): 5%
pest or weed control at 125 g/ha ([4]; post-emergence, Postemergence): 5%
pest or weed control at 250 g/ha ([4]; post-emergence, Postemergence): 45%
pest or weed control at 62 g/ha ([4]; pre-emergence, Preemergence): 10%
pest or weed control at 125 g/ha ([4]; pre-emergence, Preemergence): 15%
pest or weed control at 250 g/ha ([4]; pre-emergence, Preemergence): 15%
pest or weed control at 31 g/ha ([5]; post-emergence, Postemergence): 10%
pest or weed control at 62 g/ha ([5]; post-emergence, Postemergence): 15%
pest or weed control at 125 g/ha ([5]; post-emergence, Postemergence): 25%
pest or weed control at 250 g/ha ([5]; post-emergence, Postemergence): 30%
pest or weed control at 31 g/ha ([5]; pre-emergence, Preemergence): 5%
pest or weed control at 62 g/ha ([5]; pre-emergence, Preemergence): 35%
pest or weed control at 125 g/ha ([5]; pre-emergence, Preemergence): 35%
pest or weed control at 250 g/ha ([5]; pre-emergence, Preemergence): 85%
Plant response rating ([6]; Postemergence, 31 g ai/ha): 75
Plant response rating ([6]; Postemergence, 62 g ai/ha): 75
Plant response rating ([6]; Postemergence, 125 g ai/ha): 80
Plant response rating ([6]; Postemergence, 250 g ai/ha): 98
Plant response rating ([6]; Preemergence, 31 g ai/ha): 35
Plant response rating ([6]; Preemergence, 62 g ai/ha): 60
Plant response rating ([6]; Preemergence, 125 g ai/ha): 65
Plant response rating ([6]; Preemergence, 250 g ai/ha): 75
Plant response rating ([7]; Postemergence, 31 g ai/ha): 20
Plant response rating ([7]; Postemergence, 62 g ai/ha): 30
Plant response rating ([7]; Postemergence, 125 g ai/ha): 30
Plant response rating ([7]; Postemergence, 250 g ai/ha): 30
Plant response rating ([7]; Preemergence, 31 g ai/ha): 0
Plant response rating ([7]; Preemergence, 62 g ai/ha): 0
Plant response rating ([7]; Preemergence, 125 g ai/ha): 65
Plant response rating ([7]; Preemergence, 250 g ai/ha): 65
pest or weed control at 31 g/ha ([8]; post-emergence, Postemergence): 60%
pest or weed control at 62 g/ha ([8]; post-emergence, Postemergence): 65%
pest or weed control at 125 g/ha ([8]; post-emergence, Postemergence): 80%
pest or weed control at 250 g/ha ([8]; post-emergence, Postemergence): 85%
pest or weed control at 31 g/ha ([8]; pre-emergence, Preemergence): 100%
pest or weed control at 62 g/ha ([8]; pre-emergence, Preemergence): 100%
pest or weed control at 125 g/ha ([8]; pre-emergence, Preemergence): 100%
pest or weed control at 250 g/ha ([8]; pre-emergence, Preemergence): 100%
pest or weed control at 31 g/ha ([9]; post-emergence, Postemergence): 50%
pest or weed control at 62 g/ha ([9]; post-emergence, Postemergence): 50%
pest or weed control at 125 g/ha ([9]; post-emergence, Postemergence): 60%
pest or weed control at 250 g/ha ([9]; post-emergence, Postemergence): 70%
pest or weed control at 31 g/ha ([9]; pre-emergence, Preemergence): 5%
pest or weed control at 62 g/ha ([9]; pre-emergence, Preemergence): 15%
pest or weed control at 125 g/ha ([9]; pre-emergence, Preemergence): 30%
pest or weed control at 250 g/ha ([9]; pre-emergence, Preemergence): 55%
plant injury at 31 g/ha [10, 11]: 5%
plant injury at 62 g/ha ([10]; post-emergence, Postemergence): 5%
plant injury at 125 g/ha ([10]; post-emergence, Postemergence): 5%
plant injury at 250 g/ha ([10]; post-emergence, Postemergence): 5%
plant injury at 62 g/ha ([10]; pre-emergence, Preemergence): 0%
plant injury at 125 g/ha ([10]; pre-emergence, Preemergence): 15%
plant injury at 250 g/ha ([10]; pre-emergence, Preemergence): 25%
